Where two headings read alike, the source gives them in different places.
Columns and labels:
T-47D (breast) = test: antiproliferative assay (NCI protocol), T-47D; type: cell-based, human; settings: antiproliferative activity, multidrug-resistant line
Description: (§1) The antiproliferative assays were conducted following the protocol of the US National Cancer Institute (NCI), with minor modifications.
(§2) The coumarin-benzoxazole hybrids were also tested as antiproliferative agents against a panel of six human solid tumour cell lines (Table 2): A549 (non-small cell lung), HBL-100 (breast), HeLa (cervix), SW1573 (non-small cell lung) as examples of drug-sensitive lines, and T-47D (breast) and WiDr (colon) as multidrug-resistant lines. A non-tumour cell line (BJ-hTert, human fibroblasts) was also used for analysing the selectivity. Chemotherapeutic agents 5-fluorouracyl (5-FU) and cisplatin (CDDP) were included in the study as drug references.

human CA XII = human CA XII (Homo sapiens, UniProt O43570); test: stopped-flow CO2 hydrase assay, CA XII; settings: for Selectivity ratio I/XII: ratio of Ki CA I / CA XII; for Selectivity ratio II/XII: ratio of Ki CA II / CA XII
Sequence of human CA XII (O43570 25-354): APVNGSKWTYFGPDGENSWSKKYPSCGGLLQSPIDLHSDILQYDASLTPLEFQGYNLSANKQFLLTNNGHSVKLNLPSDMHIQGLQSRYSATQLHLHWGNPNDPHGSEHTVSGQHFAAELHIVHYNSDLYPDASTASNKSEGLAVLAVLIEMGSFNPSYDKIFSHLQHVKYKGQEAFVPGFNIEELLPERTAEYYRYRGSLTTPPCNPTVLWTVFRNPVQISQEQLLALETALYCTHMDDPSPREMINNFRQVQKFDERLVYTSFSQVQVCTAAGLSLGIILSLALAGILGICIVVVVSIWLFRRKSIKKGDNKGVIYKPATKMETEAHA
Description: (§3) A stopped-flow CO2 hydrase assay has been employed as reported earlier[10–12].

human CA VII = human CA VII (Homo sapiens, UniProt P43166); test: stopped-flow CO2 hydrase assay, CA VII
Sequence of human CA VII (P43166 whole entry): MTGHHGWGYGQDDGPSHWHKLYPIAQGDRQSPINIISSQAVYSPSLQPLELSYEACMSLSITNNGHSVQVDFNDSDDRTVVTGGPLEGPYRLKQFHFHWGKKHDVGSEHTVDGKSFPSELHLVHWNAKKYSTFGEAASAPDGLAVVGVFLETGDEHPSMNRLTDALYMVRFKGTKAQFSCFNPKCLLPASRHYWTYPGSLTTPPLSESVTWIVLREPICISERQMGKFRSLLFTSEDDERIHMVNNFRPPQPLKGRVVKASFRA
Description: as §3

[1] = tested on: SW1573 (non-small cell lung); test: antiproliferative assay (NCI protocol), SW1573; type: cell-based, human; settings: antiproliferative activity
Description: as §1, §2

HBL-100 (breast) = test: antiproliferative assay (NCI protocol), HBL-100; type: cell-based, human; settings: antiproliferative activity
Description: as §1, §2

human CA IV = human CA IV (Homo sapiens, UniProt P22748); test: stopped-flow CO2 hydrase assay, CA IV
Sequence of human CA IV (P22748 19-312): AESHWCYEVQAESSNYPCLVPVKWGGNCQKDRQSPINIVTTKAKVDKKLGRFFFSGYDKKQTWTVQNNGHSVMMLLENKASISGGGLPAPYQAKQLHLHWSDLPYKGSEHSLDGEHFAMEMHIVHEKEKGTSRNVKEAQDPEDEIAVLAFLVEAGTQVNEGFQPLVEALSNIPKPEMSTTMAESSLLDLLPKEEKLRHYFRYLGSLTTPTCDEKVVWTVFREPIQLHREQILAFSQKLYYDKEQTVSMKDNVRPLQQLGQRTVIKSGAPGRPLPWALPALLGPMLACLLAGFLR
Description: as §3

HeLa (cervix) = test: antiproliferative assay (NCI protocol), HeLa; type: cell-based, human; settings: antiproliferative activity
Description: as §1, §2

WiDr (colon) = test: antiproliferative assay (NCI protocol), WiDr; type: cell-based, human; settings: antiproliferative activity, multidrug-resistant line
Description: as §1, §2

human CA II [2] = molecular target: T1, human CA II (Homo sapiens, UniProt P00918); test: stopped-flow CO2 hydrase assay, CA II
Description: as §3

human CA IX = human CA IX (Homo sapiens, UniProt Q16790); test: stopped-flow CO2 hydrase assay, CA IX; settings: for Selectivity ratio I/IX: ratio of Ki CA I / CA IX; for Selectivity ratio II/IX: ratio of Ki CA II / CA IX; for decreased activity against CA IX compared to non-substituted counterpart 8b: versus 8b
Description: as §3

[3] = tested on: panel of six human solid tumour cell lines; test: antiproliferative assay, whole panel of tumour cell lines; type: cell-based
Description: as §1, §2

[4] = tested on: A549 (non-small cell lung); test: antiproliferative assay (NCI protocol), A549; type: cell-based, human; settings: antiproliferative activity
Description: as §1, §2

human CA I [5] = molecular target: T2, human CA I (Homo sapiens, UniProt P00915); test: stopped-flow CO2 hydrase assay, CA I
T2 sequence (P00915 whole entry): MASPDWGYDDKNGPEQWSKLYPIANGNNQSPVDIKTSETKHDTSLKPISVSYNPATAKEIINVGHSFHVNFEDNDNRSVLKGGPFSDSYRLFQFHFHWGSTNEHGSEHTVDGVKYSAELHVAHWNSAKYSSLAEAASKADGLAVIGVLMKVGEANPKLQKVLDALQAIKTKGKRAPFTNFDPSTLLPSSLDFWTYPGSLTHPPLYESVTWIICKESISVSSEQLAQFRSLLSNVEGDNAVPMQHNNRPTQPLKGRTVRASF
Description: as §3

[6] = tested on: BJ-hTert, human fibroblasts; test: antiproliferative assay (NCI protocol), non-tumour BJ-hTert; type: cell-based; settings: for GI50: non-tumour cell line, human fibroblasts; for activity against the non-tumour cell line (in words): BJ-hTert
Description: as §1, §2

human CA I [7] = molecular target: T2, human CA I; set-up: made in house; method as in PMID 22077347; settings: read-out: inhibition of hCAI; cited from earlier work
human CA II [8] = molecular target: T1, human CA II; set-up: made in house; method as in PMID 22077347; settings: read-out: inhibition of hCAII; cited from earlier work

SMILES	Ki (human CA XII) [µM]	Selectivity ratio I/XII (human CA XII)	Selectivity ratio II/XII (human CA XII)	Ki (human CA VII) [µM]	Ki (human CA IV) [µM]	Ki (human CA II [2]) [µM]	Ki (human CA IX) [µM]	Selectivity ratio I/IX (human CA IX)	Selectivity ratio II/IX (human CA IX)	Ki (human CA I [5]) [µM]	GI50 (T-47D (breast); Homo sapiens, T47D) [µM]	GI50 ([1]; Homo sapiens, SW1573) [µM]	GI50 (HBL-100 (breast); Homo sapiens, HBL-100) [µM]	GI50 (HeLa (cervix); Homo sapiens, HeLa) [µM]	GI50 (WiDr (colon); Homo sapiens, WiDr) [µM]	GI50 ([4]; Homo sapiens, A549) [µM]	GI50 ([6]; Fibroblast) [µM]	also measured
O=c1[nH]cc(F)c(=O)[nH]1 [5-Fluorouracil, reference compound]											43 ± 16	3.3 ± 1.2	4.4 ± 0.7	16 ± 5	49 ± 7	2.2 ± 0.3	5.5 ± 0.5	
Cc1cc(=O)oc2cc(O)ccc12 [Compound 3a, 4-methylumbelliferone]																		Ki (human CA I [7]): > 100 µM; Ki (human CA II [8]): > 100 µM
Cc1c(Cl)c(=O)oc2cc(OCCCCCCNc3nc4ccccc4o3)ccc12 [Compound 8e]	0.0757	>132.1	>132.1	> 10	0.82	> 10	0.0743	>134.6	>134.6	> 10	4.3 ± 0.1	3.1 ± 0.5	5.1 ± 1.4	3.9 ± 0.7	4.2 ± 0.5	2.6 ± 0.5	> 100	GI50 ([3]; Homo sapiens, range over the tumour cell lines, read-out: GI50 for all cell lines): 2.6 to 5.1 µM; increased activity compared to 5-FU ([3]; multidrug-resistant cell lines): up to 11.7 fold; increased activity compared to CDDP ([3]; multidrug-resistant cell lines): up to 6.2 fold
Cc1cc(=O)oc2cc(OCCCNc3nc4ccccc4o3)ccc12 [Compound 8a]	0.0844	>118.5	>118.5	> 10	0.839	> 10	0.0742	>134.8	>134.8	> 10	33 ± 3	29 ± 4	41 ± 5	30 ± 2	37 ± 4	32 ± 1	> 50	activity against the non-tumour cell line (in words) [6]: weak activity
Cc1cc(=O)oc2cc(OCCCCCNc3nc4cc(Br)ccc4o3)ccc12 [Compound 8h]	0.0807	>123.9	>123.9	> 10	0.792	> 10	0.757	>13.2	>13.2	> 10	32 ± 7	14 ± 1	23 ± 5	16 ± 1	29 ± 1	6.5 ± 3.1	> 100	decreased activity against CA IX compared to non-substituted counterpart 8b (human CA IX): 11 fold
Cc1ccc2oc(NCCCCCOc3ccc4c(C)cc(=O)oc4c3)nc2c1 [Compound 8g]	0.0673	>148.6	>148.6	> 10	0.762	> 10	0.417	>24.0	>24.0	> 10	> 100	> 100	> 100	> 100	> 100	> 100	> 100	decreased activity against CA IX compared to non-substituted counterpart 8b (human CA IX): 6 fold; antiproliferative activity against all cell lines (in words) [3]: completely abolished activity against all cell lines
[NH2][Pt]([NH2])([Cl])[Cl] [CDDP, cisplatin, reference compound]																		GI50 (T-47D (breast)): 17 ± 3 µM; GI50 [1]: 2.7 ± 0.4 µM; GI50 (HBL-100 (breast)): 1.9 ± 0.2 µM; GI50 (HeLa (cervix)): 1.8 ± 0.5 µM; GI50 (WiDr (colon)): 26 ± 4 µM; GI50 [4]: 4.9 ± 0.2 µM; GI50 [6]: 14 ± 2 µM
Cc1cc(=O)oc2cc(OCCCCCNc3nc4cc(S(N)(=O)=O)ccc4o3)ccc12 [Compound 8j]	0.0506	15.9	10.2	0.381	3.47	0.516	0.0907	8.9	5.7	0.806	34 ± 8	29 ± 8	27 ± 8	21 ± 7	29 ± 9	13 ± 3	> 100	

Further lines, with some results ahead:

Ki (human CA XII) [µM]	Selectivity ratio I/XII (human CA XII)	Selectivity ratio II/XII (human CA XII)	Ki (human CA VII) [µM]	Ki (human CA IV) [µM]	Ki (human CA II [2]) [µM]	Ki (human CA IX) [µM]	Selectivity ratio I/IX (human CA IX)	Selectivity ratio II/IX (human CA IX)	Ki (human CA I [5]) [µM]	SMILES	GI50 (T-47D (breast); Homo sapiens, T47D) [µM]	GI50 ([1]; Homo sapiens, SW1573) [µM]	GI50 (HBL-100 (breast); Homo sapiens, HBL-100) [µM]	GI50 (HeLa (cervix); Homo sapiens, HeLa) [µM]	GI50 (WiDr (colon); Homo sapiens, WiDr) [µM]	GI50 ([4]; Homo sapiens, A549) [µM]	GI50 ([6]; Fibroblast) [µM]	also measured
0.316	>31.6	>31.6	> 10	0.808	> 10	0.271	>36.9	>36.9	> 10	O=c1cc(-c2ccccc2)c2ccc(OCCCCCCNc3nc4ccccc4o3)cc2o1 [Compound 8f]	> 100	> 100	> 100	> 100	> 100	> 100	> 100	impairment of inhibition of CA XII compared to Me-counterpart 8c (human CA XII; versus 8c): 5 fold; impairment of inhibition of CA IX compared to Me-counterpart 8c (human CA IX; versus 8c): 3 fold; antiproliferative activity against all cell lines (in words) [3]: completely abolished activity against all cell lines
0.0651	>153.6	>153.6	> 10	0.984	> 10	0.0823	>121.5	>121.5	> 10	Cc1cc(=O)oc2cc(OCCCCCCNc3nc4ccccc4o3)ccc12 [Compound 8c]	> 100	> 100	> 100	96 ± 7	> 100	8.3 ± 1.6	> 100	
0.0571	>175.1	>175.1	> 10	6.27	> 10	0.0332	>301.2	>301.2	> 10	Cc1cc(=O)oc2cc(OCCCCCNc3nc4cc(-c5ccccc5)ccc4o3)ccc12 [Compound 8i]	> 100	60 ± 4	30 ± 9	28 ± 13	78 ± 38	41 ± 20	25 ± 6	activity against the non-tumour cell line (in words) [6]: moderate antiproliferative agent
0.0698	>143.3	>143.3	> 10	0.802	> 10	0.0645	>155.0	>155.0	> 10	Cc1c(C)c2ccc(OCCCCCCNc3nc4ccccc4o3)cc2oc1=O [Compound 8d]	> 100	20 ± 3	53 ± 14	29 ± 8	> 100	15 ± 3	> 50	activity against the non-tumour cell line (in words) [6]: weak activity
0.0845	>118.3	>118.3	> 10	0.95	> 10	0.0707	>141.4	>141.4	> 10	Cc1cc(=O)oc2cc(OCCCCCNc3nc4ccccc4o3)ccc12 [Compound 8b]	38 ± 10	33 ± 4	49 ± 6	39 ± 1	33 ± 1	15 ± 6	> 100	

Source: article PMC8667885, “2-Aminobenzoxazole-appended coumarins as potent and selective inhibitors of tumour-associated carbonic anhydrases” (Journal of Enzyme Inhibition and Medicinal Chemistry, 2021)
